Publication PMC8694685 (RSC Advances, 2021)

Key:
[1] = tested on: red blood cells; assay: Hemolysis test; format: cell-based, mouse; details: 0.15–5 mg mL^−1, 37 °C, 1 hour
Experimental: The mixture was then centrifuged at 3000 rpm for 10 min. Finally, UV spectrophotometer was used to monitor the absorbance at 541 nm to investigate the hemolysis. Deionized water and 0.9% NaCl were used as the positive and negative control, respectively. The hemolysis ratio was calculated as following: [drawing 4] […]

[2] = In vivo pharmacokinetics study, tail vein; parameters: species or system SD rats; details: SD, rat, plasma; intravenous, 17 mg kg^−1 Cur, n = 3
Experimental: Pharmacokinetics were studied in SD rats. SD rats were randomly divided into three groups with each group of three rats. […] Blood samples (0.5 mL) were extracted from the rat orbital sinus into heparinized centrifuge tubes at 3, 5, 10, 15, 30, 45, 60, 120 min and then centrifuged at 8000 rpm for 5 min to obtain the upper plasma. After that, Cur in plasma samples were extracted by adding ethyl acetate and vertexing for 5 min, then centrifuged at 5000 rpm for 5 min to get supernatant. Finally, the amount of Cur in the supernatant was measured by high-performance liquid chromatography (HPLC) based on established analytical method (SI). Various pharmacokinetic parameters (AUC, MRT, t1/2, Cmax, CL, and V) were calculated according to the analysis of DAS3.0 software.

[3] = tested on: liver fibrosis; assay: In vivo pharmacodynamic experiment, CCl4 liver fibrosis model; details: CCl4 mice, tail vein twice a week for eight weeks, Cur 17 mg kg^−1
Experimental: The mice were divided into five groups with five in each group randomly. The liver fibrosis model was established by injecting carbon tetrachloride (CCl4, 40% in olive oil, 1 mL kg^−1) intraperitoneally twice a week for four weeks. The mice were only administrated the same dosage of olive oil in control group. […] After treatment through veil tail, the mice were sacrificed and blood and livers were collected for the following study. After embedding in paraffin, the liver samples were cut into 5 μm slices. Then, liver slices were stained with hematoxylin–eosin staining (H&E) and Sirius Red staining solution for 2 h. After dehydration and fixation, the slices were observed and photographed by microscope.

[4] = In vitro release of curcumin, membrane dialysis; format: physicochemical; details: 30% ethanol in PBS pH7.4, 37 °C
Experimental: The membrane dialysis method was used for the drug release profile of CTPP–PEG–PCT. […] The end-sealed dialysis bag was placed in 30% ethanol in PBS (0.1 M, pH7.4) was used as dissolution medium at 37 °C, and medium was collected at determined time point. The amount of Cur released in the medium was monitored by UV-vis spectroscopy, and the experiments were repeated for three times.

Question: With `COc1cc(/C=C/C(=O)CC(=O)/C=C/c2ccc(O)c(OC)c2)ccc1O` [Cur, Curcumin] as the compound, how does the hemolysis ratio [1] read?
Answer: less than 5%

Question: And the AUC(0-inf) [2]?
Answer: 5610 ng·h/mL

Question: And the AUC(0-t) [2]?
Answer: 5280 ng·h/mL

Question: And the Cmax [2]?
Answer: 12900 ± 1510 ng/mL

Question: And the MRT [2]?
Answer: 45.9 min

Question: What about the clearance [2] of the same compound?
Answer: 50 ± 6 mL/min/kg

Question: And the half-life [2]?
Answer: 48.1 ± 14.8 min

Question: What about the “serum levels of AST and ALT vs saline group” value [3] of the same compound?
Answer: decreased significantly

Question: And the “in vitro drug release behaviour” value [4]?
Answer: released quickly
